Test results published in patent publication US6710168B1, “Glycopeptide antibiotics, combinatorial libraries of glycopeptide antibiotics and methods of producing same” (The Trustees of the University of Princeton, priority 1999, dated 2004).
Values after ≈ are worked out from the molar mass of the structure shown.

Experiments:
Format in all cases: cell-based
[1] = tested on: Bacillus cereus (ATCC 11778); test: MIC susceptibility test, microdilution with MTT readout; conditions: for MIC: Bacillus cereus, ATCC11778, read-out: MIC BC; for MIC BC: Bacillus ceres ATCC11778
Outline: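 Bacillus cereus ATCC® 11778 susceptibility was measured by broth microdilution in 96-well microplates using Cation Adjusted Mueller-Hinton broth. Samples were diluted two-fold from 5 μg/mL over 12 steps. Each well combined 100 μL of cell suspension (10^6 CFU/mL) with 100 μL of antibiotic solution and was incubated at 37° C. for 24 h. Then 50 μL of MTT (1 mg/mL) was added for 30 min, and MIC (μg/mL) was read as the lowest concentration inhibiting growth.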

[2] = tested on: Enterococcus faecalis (ATCC 29212); test: as above; conditions: Enterococcus faecalis ATCC29212; for MIC: read-out: MIC EF
Outline: (§1)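 Broth microdilution in cation-adjusted Mueller-Hinton broth, 12-step two-fold series from 5 μg/mL to […], mixed 1:1 with 10^6 CFU/mL cell suspension and incubated 24 h at 37 °C. MTT (1 mg/mL solution) is then added for 30 min (S. aureus, MRSA) or 2 h (E. faecalis strains). MIC = lowest concentration inhibiting growth.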

[3] = tested on: Methicillin resistant Staphylococcus aureus (ATCC 33591); test: as above; conditions: Staphylococcus aureus ATCC3359, Methicillin resistance; for MIC: ATCC 3359 / ATCC 33591 / MRSA, read-out: MIC MRSA
Outline: as §1

[4] = tested on: Staphylococcus aureus (ATCC 29213); test: as above; conditions: Staphylococcus aureus ATCC29213; for MIC: read-out: MIC SA
Outline: as §1

[5] = tested on: gentamicin, streptmycin, vancomycin resistant Enterococcus faecalis (ATCC 51299); test: microbe, parasite or virus in culture; conditions: for MIC: Enterococcus faecalis, ATCC51299, read-out: MIC VREF; for MIC VREF: Enterococcus faecalis ATCC51299, vancomycin resistance
Outline: as §1

[6] = tested on: Enterococcus faecium CL5137, VanA; test: MIC susceptibility test; conditions: Enterococcus faecium CL5137, VanA; for MIC: read-out: MIC CL5137
[7] = tested on: Enterococcus faecalis CL5244, VanB; test: MIC susceptibility test; conditions: Enterococcus faecalis CL5244, VanB; for MIC: read-out: MIC CL5244
Outline: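 MTT-based broth microdilution in cation-adjusted Mueller-Hinton broth; two-fold 12-step dilutions […], inoculum 10^6 CFU/mL, 37° C for 24 h.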

Structure (SMILES) | MIC [1] [µg/mL] | MIC [2] [µg/mL] | MIC [3] [µg/mL] | MIC [4] [µg/mL] | MIC [5] [µg/mL] | MIC [6] [µg/mL] | MIC [7] [µg/mL] | MIC BC [1] [µg/mL] | MIC EF [2] [µg/mL] | MIC MRSA [3] [µg/mL] | MIC SA [4] [µg/mL] | MIC VREF [5] [µg/mL] | MIC CL5137 [6] | MIC CL5244 [7] [µg/mL]
CN[C@@H](CC(C)C)C(=O)N[C@H]1C(=O)N[C@@H](CC(N)=O)C(=O)N[C@H]2C(=O)NC3C(=O)N[C@H](C(=O)N[C@@H](C(=O)O)c4cc(O)cc(O)c4-c4cc3ccc4O)[C@H](O)c3ccc(c(Cl)c3)Oc3cc2cc(c3OC2OC(CNC(=O)C(F)(F)F)C(O)C(O)C2OC2CC(C)(N)C(O)C(C)O2)Oc2ccc(cc2Cl)[C@H]1O (some centres unmarked) [XL, Glucose-C6-trifluoroacetamide Vancomycin] | 1.3 (≈ 0.842 µM) | 1.3 (≈ 0.842 µM) | 1 (≈ 0.648 µM) | 0.48 (≈ 0.311 µM) | 5 (≈ 3.24 µM) | > 50 | 25 (≈ 16.2 µM) | – | – | – | – | – | – | –
CNC(CC(C)C)C(=O)NC1C(=O)NC(CC(N)=O)C(=O)NC2C(=O)NC3C(=O)NC(C(=O)NC(C(=O)O)c4cc(O)cc(O)c4-c4cc3ccc4O)C(O)c3ccc(c(Cl)c3)Oc3cc2cc(c3OC2OC(COS(=O)(=O)c3c(C)cc(C)cc3C)C(O)C(O)C2OC2CC(C)(N)C(O)C(C)O2)Oc2ccc(cc2Cl)C1O (centres unmarked) [XLI, Glucose-C6-mesitylenesulfonyl Vancomycin] | – | – | – | – | – | – | – | 1.3 (≈ 0.797 µM) | 1.3 (≈ 0.797 µM) | 1.3 (≈ 0.797 µM) | 0.63 (≈ 0.386 µM) | 1.3 (≈ 0.797 µM) | 50< μg/mL | 6.3 (≈ 3.86 µM)
CN[C@@H](CC(C)C)C(=O)N[C@H]1C(=O)N[C@@H](CC(N)=O)C(=O)N[C@H]2C(=O)NC3C(=O)N[C@H](C(=O)N[C@@H](C(=O)O)c4cc(O)cc(O)c4-c4cc3ccc4O)[C@H](O)c3ccc(c(Cl)c3)Oc3cc2cc(c3OC2OC(COS(=O)(=O)c3c(C)cc(C)cc3C)C(O)C(O)C2OC2CC(C)(NCc3ccc(-c4ccc(Cl)cc4)cc3)C(O)C(C)O2)Oc2ccc(cc2Cl)[C@H]1O (some centres unmarked) [XLII, N-4-(4-Chlorophenyl)benzylvancosamine-glucose-C6-2-mesitylenesulfonated Vancomycin] | 1.9 (≈ 1.04 µM) | 1 (≈ 0.546 µM) | > 5 | > 5 | 1.9 (≈ 1.04 µM) | 6.3 (≈ 3.44 µM) | 0.8 (≈ 0.437 µM) | – | – | – | – | – | – | –
CN[C@@H](CC(C)C)C(=O)N[C@H]1C(=O)N[C@@H](CC(N)=O)C(=O)N[C@H]2C(=O)NC3C(=O)N[C@H](C(=O)N[C@@H](C(=O)O)c4cc(O)cc(O)c4-c4cc3ccc4O)[C@H](O)c3ccc(c(Cl)c3)Oc3cc2cc(c3OC2OC(CNN)C(O)C(O)C2OC2CC(C)(N)C(O)C(C)O2)Oc2ccc(cc2Cl)[C@H]1O (some centres unmarked) [XLIV, Glucose-C6-hydrazine Vancomycin] | 1.3 (≈ 0.888 µM) | 1.3 (≈ 0.888 µM) | 1.3 (≈ 0.888 µM) | 0.63 (≈ 0.431 µM) | 2.5 (≈ 1.71 µM) | > 50 | 50 (≈ 34.2 µM) | – | – | – | – | – | – | –
CCCCCCCCCCNC1(C)CC(OC2C(Oc3c4cc5cc3Oc3ccc(cc3Cl)C(O)C3NC(=O)C(NC(=O)C5NC(=O)C(CC(N)=O)NC(=O)C(NC(=O)C(CC(C)C)NC)C(O)c5ccc(c(Cl)c5)O4)c4ccc(O)c(c4)-c4c(O)cc(O)cc4C(C(=O)O)NC3=O)OC(CNCc3ccc(-c4ccc(Cl)cc4)o3)C(O)C2O)OC(C)C1O (centres unmarked) [XLIX, Glucose-C6-N-5-(4-chlorophenyl)furan-1-methylene-vancosamine-N-decyl Vancomycin] | – | – | – | – | – | – | – | 3.8 (≈ 2.14 µM) | 1.9 (≈ 1.07 µM) | 2.5 (≈ 1.41 µM) | 5.0 (≈ 2.81 µM) | 1.3 (≈ 0.731 µM) | 13 µg/mL (≈ 7.31 µM) | 0.8 (≈ 0.45 µM)
CN[C@@H](CC(C)C)C(=O)N[C@H]1C(=O)N[C@@H](CC(N)=O)C(=O)N[C@H]2C(=O)NC3C(=O)N[C@H](C(=O)N[C@@H](C(=O)O)c4cc(O)cc(O)c4-c4cc3ccc4O)[C@H](O)c3ccc(c(Cl)c3)Oc3cc2cc(c3OC2OC(CN=[N+]=[N-])C(O)C(O)C2OC2CC(C)(N)C(O)C(C)O2)Oc2ccc(cc2Cl)[C@H]1O (some centres unmarked) [XLVI, Glucose-C6-azide Vancomycin] | 1 (≈ 0.678 µM) | 1.3 (≈ 0.882 µM) | 1.3 (≈ 0.882 µM) | 0.63 (≈ 0.427 µM) | 2.5 (≈ 1.7 µM) | > 50 | 25 (≈ 17 µM) | – | – | – | – | – | – | –
CNC(CC(C)C)C(=O)NC1C(=O)NC(CC(N)=O)C(=O)NC2C(=O)NC3C(=O)NC(C(=O)NC(C(=O)O)c4cc(O)cc(O)c4-c4cc3ccc4O)C(O)c3ccc(c(Cl)c3)Oc3cc2cc(c3OC2OC(CN)C(O)C(O)C2OC2CC(C)(N)C(O)C(C)O2)Oc2ccc(cc2Cl)C1O (centres unmarked) [XLVII, Glucose-C6-amine Vancomycin] | – | – | – | – | – | – | – | 1.0 (≈ 0.69 µM) | 1.9 (≈ 1.31 µM) | 0.32 (≈ 0.221 µM) | 0.63 (≈ 0.435 µM) | 1 (≈ 0.69 µM) | 50< μg/mL | 25 (≈ 17.3 µM)
CNC(CC(C)C)C(=O)NC1C(=O)NC(CC(N)=O)C(=O)NC2C(=O)NC3C(=O)NC(C(=O)NC(C(=O)O)c4cc(O)cc(O)c4-c4cc3ccc4O)C(O)c3ccc(c(Cl)c3)Oc3cc2cc(c3OC2OC(CNCc3ccc(-c4ccc(Cl)cc4)cc3)C(O)C(O)C2OC2CC(C)(N)C(O)C(C)O2)Oc2ccc(cc2Cl)C1O (centres unmarked) [XXIX, Glucose-C6-N-4-(4-chlorophenyl)benzyl Vancomycin] | – | – | – | – | – | – | – | 0.63 (≈ 0.382 µM) | 0.63 (≈ 0.382 µM) | 0.63 (≈ 0.382 µM) | 0.63 (≈ 0.382 µM) | 0.63 (≈ 0.382 µM) | 50 µg/mL (≈ 30.3 µM) | 0.6 (≈ 0.364 µM)
CNC(CC(C)C)C(=O)NC1C(=O)NC(CC(N)=O)C(=O)NC2C(=O)NC3C(=O)NC(C(=O)NC(C(=O)O)c4cc(O)cc(O)c4-c4cc3ccc4O)C(O)c3ccc(c(Cl)c3)Oc3cc2cc(c3OC2OC(CNCc3ccc(-c4ccc(Cl)cc4)o3)C(O)C(O)C2OC2CC(C)(N)C(O)C(C)O2)Oc2ccc(cc2Cl)C1O (centres unmarked) [XXX, Glucose-C6-N-5-(4-chlorophenyl)furan-1-methylene Vancomycin] | – | – | – | – | – | – | – | 0.63 (≈ 0.384 µM) | 0.63 (≈ 0.384 µM) | 0.32 (≈ 0.195 µM) | 0.32 (≈ 0.195 µM) | 0.63 (≈ 0.384 µM) | 50< μg/mL | 1.6 (≈ 0.976 µM)
CN[C@@H](CC(C)C)C(=O)N[C@H]1C(=O)N[C@@H](CC(N)=O)C(=O)N[C@H]2C(=O)NC3C(=O)N[C@H](C(=O)N[C@@H](C(=O)O)c4cc(O)cc(O)c4-c4cc3ccc4O)[C@H](O)c3ccc(c(Cl)c3)Oc3cc2cc(c3OC2OC(CNCc3cc(Cl)ccc3O)C(O)C(O)C2OC2CC(C)(N)C(O)C(C)O2)Oc2ccc(cc2Cl)[C@H]1O (some centres unmarked) [XXXIX, Glucose-C6-5-chloro-2-hydroxy-benzylamine Vancomycin] | 1.3 (≈ 0.818 µM) | 2.5 (≈ 1.57 µM) | 1.3 (≈ 0.818 µM) | 1.3 (≈ 0.818 µM) | > 5 | > 50 | 25 (≈ 15.7 µM) | – | – | – | – | – | – | –
CNC(CC(C)C)C(=O)NC1C(=O)NC(CC(N)=O)C(=O)NC2C(=O)NC3C(=O)NC(C(=O)NC(C(=O)O)c4cc(O)cc(O)c4-c4cc3ccc4O)C(O)c3ccc(c(Cl)c3)Oc3cc2cc(c3OC2OC(CNC(=O)c3cnc4ccccc4n3)C(O)C(O)C2OC2CC(C)(N)C(O)C(C)O2)Oc2ccc(cc2Cl)C1O (centres unmarked) [XXXVII, Glucose-C6-N-2-quinoxaloyl Vancomycin] | – | – | – | – | – | – | – | 0.32 (≈ 0.199 µM) | 0.32 (≈ 0.199 µM) | 0.63 (≈ 0.393 µM) | 0.32 (≈ 0.199 µM) | 0.32 (≈ 0.199 µM) | 50< μg/mL | 1.6 (≈ 0.997 µM)
